This is an account of results in patent US6172110A, “Acylated betulin and dihydrobetulin derivatives, preparation thereof and use thereof” (The University of North Carolina at Chapel Hill, priority 1999, dated 2001).

Entries after “also recorded” stand apart in the source; their conditions may differ. Like-named read-outs stand apart in the source and are kept apart here.

One data set concerns HIV-1. The conditions noted are these: H9 lymphocyte cells, Fujioka et al. 1994, cited from earlier work.
Another data set deals with HIV-1 (IIIB isolate). Briefly: HIV-1 inhibition (p24 antigen ELISA) in infected H9 lymphocytes. Type of data set: cell-based. To be noted: for EC50: Human immunodeficiency virus 1, IIIB, Lymphocyte, 96 h, read-out: Anti-HIV Activity EC50. As to the method: (§1) Aliquot of this cell line were only used in experiments when in log-phase growth. Test samples were first dissolved in dimethyl sulfoxide. The following final drug concentrations were routinely used for screening: 100, 20, 4 and 0.8 μg/ml. For active agents, additional dilutions were prepared for subsequent testing so that an accurate EC50 value (defined below) could be achieved. […] The appropriate amount of virus for a multiplicity of infection (moi) between 0.1 and 0.01 Infectious Units/cell was added to the first aliquot of H9 cells. The other aliquot only received culture medium, and these mock-infected cells were used for toxicity determinations (IC50, defined below). After a 4 h incubation at 37° C. and 5% CO2, both cell populations were washed three times with fresh medium and then added to the appropriate wells of a 24 well-plate containing the various concentrations of the test drug or culture medium (positive infected control/negative drug control). In addition, AZT was also assayed during each experiment as a positive drug control. The plates were incubated at 37° C. and 5% CO2 for 4 days. Cell-free supernatants were collected on Day 4 for use in a p24 antigen ELISA assay. P24 antigen is a core protein of HIV and therefore is an indirect measure of virus present in the supernatants. Toxicity was determined by performing cell counts by a Coulter Counter on the mock-infected H9 cells which had either received culture medium (no toxicity), test sample, or AZT.
Compounds of the present invention were assayed for anti-HIV activity according to the following assay procedures. […] The cell lines were used in experiments only when in the logarithmic phase of growth, whereas uninfected peripheral blood mononuclear cells (PBMCs) were first stimulated with PHA (1 μg/mL) for three days. […] The cell lines and PBMCs were washed thoroughly to remove unadsorbed virions and resuspended at 4×10^5 cells/ml in complete medium or complete medium with 10% v/v interleukin 2 (IL-2) , respectively. One ml. aliquots were placed into wells of 24-well culture plates containing an equal volume of test compounds (diluted in the appropriate culture medium). The toxicity of each compound was assessed by determining the number of compound-exposed uninfected cells that remained after four days at 37° C. and 5% CO2. A p24 antigen ELISA assay was used to determine the level of virus released in the medium of the HIV-infected cultures. The p24 antigen assay used a HIV-1 anti-p24 specific monoclonal antibody as the capture antibody coated onto 96-well plates. […] P24 in the culture medium was quantitated against a standard curve containing known amounts of p24. The effective (EC50) and inhibitory (IC50) concentrations for anti-HIV activity and cytotoxicity, respectively, were determined.
For orientation: An ELISA detects its analyte on a solid surface through an enzyme-linked reagent.

Data set [1] can be described thus: Cytotoxicity: cell counts of mock-infected H9 cells. Format: cell-based. The conditions noted are these: human. As to the method:
as §1, with “The biological evaluation of HIV-1 inhibition was carried out according to established protocols, (Kashiwada, Y., et al., J Med Chem. 39:1016-1017 (1996); Hashimoto, F., et al., Bioorg. & Med Chem. 5:2133-2143 (1997)). The T cell line, H9, was maintained in continuous culture with complete medium (RPMI 1640 with 10% fetal calf serum supplemented with L-glutamine at 5% CO2 and 37° C.). Aliquot” for “Aliquot”, “achieved. As the test samples were being prepared, an aliquot of the H9 cell line was infected with HIV-1 (IIIB isolate) while another aliquot was mock-infected with complete medium.” for “achieved.”
Compounds of the present invention were assayed for anti-HIV activity according to the following assay procedures. The T cell line, H9, and the promonocytic cell line, U937, were maintained separately in continuous culture with complete medium (RPMI 1640 with 10% fetal calf serum) at 5% CO2 and 37° C. The cell lines were used in experiments only when in the logarithmic phase of growth, whereas uninfected peripheral blood mononuclear cells (PBMCs) were first stimulated with PHA (1 μg/mL) for three days. All cell targets were incubated with HIV-1 (IIIB isolate, TCID50 10^4 IU/ml, at a multiplicity of infection of […] IU/cell) for one hour at 37° C. and 5% CO2. The cell lines and PBMCs were washed thoroughly to remove unadsorbed virions and resuspended at 4×10^5 cells/ml in complete medium or complete medium with 10% v/v interleukin 2 (IL-2) , respectively. One ml. aliquots were placed into wells of 24-well culture plates containing an equal volume of test compounds (diluted in the appropriate culture medium). The toxicity of each compound was assessed by determining the number of compound-exposed uninfected cells that remained after four days at 37° C. and 5% CO2. A p24 antigen ELISA assay was used to determine the level of virus released in the medium of the HIV-infected cultures. The p24 antigen assay used a HIV-1 anti-p24 specific monoclonal antibody as the capture antibody coated onto 96-well plates. Following a sample incubation period, rabbit serum containing antibodies for HIV-1 p24 was used to tag any p24 captured onto the microtiterwell surface. Peroxidase conjugated goat anti-rabbit serum was then used to tag HIV-1 p24 specific rabbit antibodies that had complexed with captured p24. […] The cutoff for the p24 ELISA assay was 12.5 pg/ml. P24 in the culture medium was quantitated against a standard curve containing known amounts of p24. […]

Where [2] appears, read: read-out: EC50, inhibitory activity against HIV-1 replication.

Usually EC50 stands for the concentration needed to bring the measured effect to its halfway point. On to `CC(C)[C@@H]1CC[C@]2(C(=O)O)CC[C@]3(C)[C@H](CC[C@@H]4[C@@]5(C)CC[C@H](O)C(C)(C)[C@@H]5CC[C@]43C)[C@@H]12` [dihydrobetulinic acid], for which the T.I. in the data set on HIV-1 is given as 14. Further, in the data set on HIV-1 (read-out: EC50, anti-HIV activity (unit inferred)), the EC50 was 900 nM.

`CC(=O)[C@@H]1CC[C@]2(C(=O)O)CC[C@]3(C)[C@H](CC[C@@H]4[C@@]5(C)CC[C@H](O)C(C)(C)[C@@H]5CC[C@]43C)[C@@H]12` [platanic acid]: the T.I. in the data set on HIV-1 is listed as 14. Also, the EC50 in the data set on HIV-1 (setting [2]) is 6500 nM.

Regarding `C=C(C)[C@@H]1CC[C@]2(C(=O)O)CC[C@]3(C)[C@H](CC[C@@H]4[C@@]5(C)CC[C@H](O)C(C)(C)[C@@H]5CC[C@]43C)[C@@H]12` [Compound 1, betulinic acid, reference compound], the EC50 with HIV-1 (IIIB isolate) (H9 lymphocytes, p24 ELISA Day 4, average of at least two experiments) is 1400 nM; with HIV-1 (setting [2]), 1400 nM. Besides, the CC50 at 96 h in data set [1] (toxic to 50% of mock-infected H9 cells, 4 days, average of at least two experiments, read-out: Cytotoxicity IC50) was 13000 nM.

For `C=C(C)[C@@H]1CC[C@]2(COC(=O)CC(C)(C)CC(=O)O)CC[C@]3(C)[C@H](CC[C@@H]4[C@@]5(C)CC[C@H](OC(=O)CC(C)(C)CC(=O)O)C(C)(C)[C@@H]5CC[C@]43C)[C@@H]12` [Compound 4, 3,28-Di-O-(3',3'-dimethylglutaryl)-betulin], in the data set on HIV-1 (IIIB isolate) (H9 cells, average of at least two experiments), the “Therapeutic Index (TI = IC50/EC50)” value is given as 21,515. In addition, in the data set on HIV-1 (IIIB isolate) (H-9 lymphocytes, EC50 compared with related compounds), the “anti-HIV activity, result in words” value is “significantly enhanced activity; also recorded: remarkable anti-HIV activity even greater than that of the betulinic acid derivative 2”. Also, in the data set on HIV-1 (IIIB isolate) (H-9 lymphocytes, compared with related compounds), the “TI, result in words” value was “remarkably high therapeutic index (TI); also recorded: higher TI than compound 2”. Also, the EC50 in the data set with HIV-1 (IIIB isolate) was 0.66 nM. Moreover, the “fold more potent than compound 2” value in the data set with HIV-1 (IIIB isolate) (compared with compound 2) was “about 3 fold”. The CC50 at 96 h in data set [1] (h9 cells) was 14200 nM.
